# Results: patent US6599859B1, “Mulch/herbicide composition” (Dow AgroSciences LLC, priority 2001, dated 2003)
# Tested on: weeds
# Test: Weed control by mulch, dithiopyr and mulch/dithiopyr compositions applied to the ground
# Format: in vivo
# Conditions: dithiopyr alone, no mulch, application rate 560 grams per hectare
# Excerpt: In the following examples, dithiopyr is first dissolved in a warm solvent such as dipropylene glycol at 12-18 percent, by weight. This solution was then sprayed onto a clay carrier.
# The results provided by the composition of this invention were compared with the results obtained using the herbicide and the mulch individually.
structure (smiles),measurement,value
"CSC(=O)c1c(C(F)F)nc(C(F)(F)F)c(C(=O)SC)c1CC(C)C [Dithiopyr, 2-difluoromethyl-4-(2-methylpropyl)-6-trifluoromethyl-3,5-pyridinedicarbothioic acid, S,S-dimethyl ester]",% Weed Control,30%
